Assay results from patent US20250257401A1, “BIOMARKER FOR TUBEROUS SCLEROSIS COMPLEX WITH NO MUTATION IDENTIFIED IN TSC1 OR TSC2 GENE, AND USES THEREOF” (Guangzhou KingMed Transformative Medicine Institute Co., …, priority 2022, published 2025).

What was measured:
Assay type in all cases: cell-based, human
HaCaT cells = assay: Dose-dependent cell viability, preliminary IC50 experiment (HaCaT); details: FIG. 6
HEK293 cells = assay: Dose-dependent cell viability, preliminary IC50 experiment (HEK293); details: FIG. 6
IQGAP2-silenced cells = assay: Cell proliferation of IQGAP2-silenced cells after administration of inhibitors (CCK8); details: IQGAP2-silenced HaCaT and HEK293 cells; each inhibitor in a dose of IC50; FIG. 7 and FIG. 8
Source text: That is, the pathway was further determined by verifying whether the cell proliferation caused by IQGAP2 silencing can be alleviated by inhibiting the AKT activity and mTORC1 activity (key factors of the mTOR pathway) in IQGAP2-silenced cells with the inhibitors.
Then, HaCaT cells and HEK293 cells were administrated with each inhibitor in a dose of IC50.

IQGAP2 gene [1] = assay: IQGAP2 silencing by shRNA, gene and protein expression (HaCaT); details: HaCaT cells; lentiviral transduction; 72 hours; FIG. 3
Source text: (§1) To verify whether the abnormal IQGAP2 affected cell proliferation, IQGAP2-silenced cells were constructed using an RNAi approach. Since TSC could affect the skin and kidney of the patients, human keratinocytes (HaCaT) cells and human embryonic kidney 293 (HEK 293) cells were chosen as cell models. The shRNA sequence was designed and constructed for the IQGAP2 gene (as shown in Table 1), and IQGAP2-silenced HaCaT cells and IQGAP2-silenced HEK293 cells were obtained by lentiviral transduction. Subsequently, the cell proliferation of IQGAP2-silenced cells was detected at 24, 48, and 72 hours by using Cell Counting Kit 8 (CCK8).
(§2) The results were shown in FIGS. 3 to 4, and FIG. 3 depicted the gene expression level of IQGAP2-silenced human keratinocytes cells and IQGAP2-silenced human embryonic kidney 293 cells at 72 hours. […] And Control represented a control group, shGFP represented the empty vector control group, sh IQ IQGAP2-1, sh IQ IQGAP2-2, and sh IQ IQGAP2-3 represented the corresponding shRNA-1 to shRNA-3 primer silencing groups (repeated in triplicate for each group), respectively, and GAPDH represented the internal reference gene.

IQGAP2 gene [2] = assay: IQGAP2 silencing by shRNA, gene and protein expression (HEK293); details: HEK293 cells; lentiviral transduction; 72 hours; FIG. 3
Source text: as §1, §2

CO[C@H]1C[C@@H]2CC[C@@H](C)[C@@](O)(O2)C(=O)C(=O)N2CCCC[C@H]2C(=O)O[C@H]([C@H](C)C[C@@H]2CC[C@@H](O)[C@H](OC)C2)CC(=O)[C@H](C)/C=C(\C)[C@@H](O)[C@@H](OC)C(=O)[C@H](C)C[C@H](C)/C=C/C=C/C=C/1C [Rapamycin]
IC50 (HaCaT cells; Homo sapiens): 50 µM
IC50 (HEK293 cells; Homo sapiens): 12.5 µM

O=c1[nH]c2ccccc2n1C1CCN(Cc2ccc(-c3nc4cc5[nH]cnc5cc4nc3-c3ccccc3)cc2)CC1 [AKT inhibitor VIII]
IC50 (HaCaT cells): 25 µM
IC50 (HEK293 cells): 12.5 µM
cell proliferation of IQGAP2-silenced cells (IQGAP2-silenced cells): reduce the cell proliferation

IQGAP2-shRNA-3: IQGAP2-silenced shRNA sequence 5′-GCTCCAGATGGCTTTGATATC-3′ (SEQ ID NO. 3) (GCUCCAGAUGGCUUUGAUAUC)
IQGAP2 silencing (IQGAP2 gene [1]): optimum silencing

IQGAP2-shRNA-1: IQGAP2-silenced shRNA sequence 5′-GCTCCTACCTACTGCGAATAT-3′ (SEQ ID NO. 1) (GCUCCUACCUACUGCGAAUAU)
IQGAP2 silencing (IQGAP2 gene [2]): optimum silencing
